Assay results from BindingDB's records for doi:10.1016/j.bmc.2012.01.022 (Florida A&M University, 2012).

What was measured:
Histamine H1 receptor = Histamine H1 receptor (Homo sapiens, UniProt P35367); experiment: Displacement of [3H]-Pyrilamine from human histamine H1 receptor by liquid scintillation counter
[1] = molecular target: 5-hydroxytryptamine receptor 2A (Homo sapiens, UniProt P28223); experiment: Binding affinity at 5-HT2A receptor by radioligand displacement assay
[2] = molecular target: T1, 5-hydroxytryptamine receptor 2C (Homo sapiens, UniProt P28335); experiment: Binding affinity at 5-HT2C receptor by radioligand displacement assay
T1 sequence (P28335 whole entry): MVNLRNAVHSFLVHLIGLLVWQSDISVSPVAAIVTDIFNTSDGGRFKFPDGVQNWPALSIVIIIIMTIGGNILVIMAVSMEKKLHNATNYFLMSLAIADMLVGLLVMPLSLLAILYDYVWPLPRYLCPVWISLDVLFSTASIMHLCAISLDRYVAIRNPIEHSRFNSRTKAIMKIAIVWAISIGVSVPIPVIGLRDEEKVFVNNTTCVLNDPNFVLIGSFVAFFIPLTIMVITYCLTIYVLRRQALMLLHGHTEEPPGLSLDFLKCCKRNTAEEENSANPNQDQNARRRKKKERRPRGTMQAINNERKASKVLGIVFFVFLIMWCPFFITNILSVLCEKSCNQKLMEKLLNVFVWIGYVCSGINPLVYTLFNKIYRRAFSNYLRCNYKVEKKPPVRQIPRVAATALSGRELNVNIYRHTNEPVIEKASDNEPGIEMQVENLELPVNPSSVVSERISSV

D(2) dopamine receptor = D(2) dopamine receptor (Homo sapiens, UniProt P14416); experiment: Displacement of [3H]-N-methylspiperone from dopamine D2 receptor expressed in human MES-23.5 cells
Chain of D(2) dopamine receptor (P14416 whole entry): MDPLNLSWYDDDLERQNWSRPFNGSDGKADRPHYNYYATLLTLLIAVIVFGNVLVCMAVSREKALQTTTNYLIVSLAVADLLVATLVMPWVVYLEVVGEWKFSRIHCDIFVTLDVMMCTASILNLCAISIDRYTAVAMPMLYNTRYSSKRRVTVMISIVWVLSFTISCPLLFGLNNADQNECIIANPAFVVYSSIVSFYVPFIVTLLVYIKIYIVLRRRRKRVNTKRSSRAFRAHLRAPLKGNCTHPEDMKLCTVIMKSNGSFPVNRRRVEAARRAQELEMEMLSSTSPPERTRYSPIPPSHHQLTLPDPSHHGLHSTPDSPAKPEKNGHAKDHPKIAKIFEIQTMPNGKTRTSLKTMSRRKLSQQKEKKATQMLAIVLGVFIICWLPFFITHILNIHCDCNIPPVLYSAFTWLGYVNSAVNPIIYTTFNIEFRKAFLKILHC

Chain of Histamine H1 receptor (P35367 whole entry): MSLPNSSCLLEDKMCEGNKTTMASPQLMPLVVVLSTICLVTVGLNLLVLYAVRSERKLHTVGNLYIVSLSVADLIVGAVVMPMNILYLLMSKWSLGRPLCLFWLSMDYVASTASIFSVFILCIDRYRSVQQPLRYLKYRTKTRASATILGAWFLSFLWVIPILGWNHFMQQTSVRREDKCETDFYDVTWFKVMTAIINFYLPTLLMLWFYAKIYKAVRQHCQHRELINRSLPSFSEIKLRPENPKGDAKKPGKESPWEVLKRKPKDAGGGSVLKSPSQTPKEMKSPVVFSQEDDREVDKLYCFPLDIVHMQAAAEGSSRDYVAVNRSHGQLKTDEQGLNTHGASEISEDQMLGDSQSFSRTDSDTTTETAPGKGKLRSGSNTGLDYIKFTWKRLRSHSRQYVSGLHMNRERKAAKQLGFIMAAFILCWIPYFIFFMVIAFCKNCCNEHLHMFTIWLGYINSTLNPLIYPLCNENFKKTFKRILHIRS
Chain of 5-hydroxytryptamine receptor 2A (P28223 whole entry): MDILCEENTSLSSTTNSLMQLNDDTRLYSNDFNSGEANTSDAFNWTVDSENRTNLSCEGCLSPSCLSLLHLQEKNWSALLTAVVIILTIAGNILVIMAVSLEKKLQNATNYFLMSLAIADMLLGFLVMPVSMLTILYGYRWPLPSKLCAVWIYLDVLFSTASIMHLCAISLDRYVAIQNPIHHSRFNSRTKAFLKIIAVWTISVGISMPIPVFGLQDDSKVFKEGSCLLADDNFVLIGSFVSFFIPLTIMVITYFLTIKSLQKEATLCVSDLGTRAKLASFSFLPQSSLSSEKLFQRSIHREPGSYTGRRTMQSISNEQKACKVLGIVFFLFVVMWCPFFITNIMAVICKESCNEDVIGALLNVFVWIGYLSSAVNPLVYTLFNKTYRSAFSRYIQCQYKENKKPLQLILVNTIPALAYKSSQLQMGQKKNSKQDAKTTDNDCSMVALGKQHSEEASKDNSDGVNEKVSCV

Row | SMILES | Ki (Histamine H1 receptor) | Ki [1] | Ki [2] | Ki (D(2) dopamine receptor)
1 | OC1(c2ccc(Cl)cc2)C[C@H]2CC[C@@H](C1)N2CCCCc1nc2ccccc2s1 (some centres undefined) | 187 nM | > 10000 nM | 4620 nM | –
2 | O=C(CCCCN1[C@@H]2CC[C@H]1CC(O)(c1ccc(Cl)cc1)C2)c1nc2ccccc2s1 (some centres undefined) | – | – | – | 180 nM
